Laboratory results as given in ChEMBL document CHEMBL3045657, “Synthesis and biological evaluation of naphthalene, furan and pyrrole based chalcones as cytotoxic and antimicrobial agents” (2012).
In brackets after ≈: the same amount, converted by molar mass. Activity calls are given as the source filed them. The rule behind the calls is not given here.

Columns and labels:
Type in all cases: functional
Candida albicans = assay: Antifungal activity against Candida albicans MTCC 3018 after 48 hr by serial tube dilution method; conditions: MTCC 3018, 48 h
Salmonella typhi = assay: Antibacterial activity against Salmonella enterica subsp. enterica serovar Typhi MTCC 1251 after 24 hr by serial tube dilution method; conditions: MTCC 1251, 24 h
PC-3 = assay: Cytotoxicity against Homo sapiens (human) PC3 cells assessed as cell growth inhibition at 1 x 10^-5 M after 48 hr by SRB assay
Escherichia coli = assay: Antibacterial activity against Escherichia coli MTCC 82 after 24 hr by serial tube dilution method; conditions: MTCC 82, 24 h
HEp-2 = assay: Cytotoxicity against Homo sapiens (human) Hep2 cells assessed as cell growth inhibition at 1 x 10^-5 M after 48 hr by SRB assay; conditions: HEp-2, 48 h, read-out: GI
IMR-32 = assay: Cytotoxicity against Homo sapiens (human) IMR32 cells assessed as cell growth inhibition at 1 x 10^-5 M after 48 hr by SRB assay; conditions: IMR-32, 48 h, read-out: GI
Bacillus subtilis = assay: Antibacterial activity against Bacillus subtilis MTCC 2451 after 24 hr by serial tube dilution method; conditions: MTCC 2451, 24 h
Staphylococcus aureus = assay: Antibacterial activity against Staphylococcus aureus MTCC 96 after 24 hr by serial tube dilution method; conditions: MTCC 96, 24 h
Pseudomonas aeruginosa = assay: Antibacterial activity against Pseudomonas aeruginosa MTCC 2642 after 24 hr by serial tube dilution method; conditions: MTCC 2642, 24 h
OVCAR = assay: Cytotoxicity against Homo sapiens (human) OVCAR cells assessed as cell growth inhibition at 1 x 10^-5 M after 48 hr by SRB assay
Aspergillus niger = assay: Antifungal activity against Aspergillus niger MTCC 1344 after 48 hr by serial tube dilution method; conditions: MTCC 1344, 48 h

O=C(/C=C/c1c(Cl)cccc1Cl)c1ccc[nH]1
MIC (Candida albicans): 125 µg/mL (≈ 470 µM)
MIC (Salmonella typhi): 31.2 µg/mL (≈ 117 µM)
growth inhibition (GI) (PC-3): inactive
MIC (Escherichia coli): 15.6 µg/mL (≈ 58.6 µM)
inhibition of growth at 10 µM (HEp-2): 16%
inhibition of growth at 10 µM (IMR-32): 12%
MIC (Bacillus subtilis): 31.2 µg/mL (≈ 117 µM)
MIC (Staphylococcus aureus): 15.6 µg/mL (≈ 58.6 µM)
MIC (Pseudomonas aeruginosa): 31.2 µg/mL (≈ 117 µM)
growth inhibition (GI) (OVCAR): inactive
MIC (Aspergillus niger): 125 µg/mL (≈ 470 µM)
